In ChEMBL document CHEMBL5215012, “Daphnepedunins A-F, Anti-HIV Macrocyclic Daphnane Orthoester Diterpenoids from Daphne pedunculata” (J Nat Prod, 2022):

How the values were obtained:
[1] = system: Human immunodeficiency virus 1; assay: Anti-HIV activity against HIV-1 NL4-3 Nanoluc-sec virus infected in human MT4 cells assessed as viral growth inhibition by measuring luciferase activity measured after 3 days post-infection by Nano-Glo luciferase assay; format: functional, organism-based; conditions: Human immunodeficiency virus 1, NL4-3, MT4, 72 h
MT4 = assay: Cytotoxicity against human MT4 cells assessed as reduction in cell viability by celltiter-glo luminescent cell viability assay; format: toxicity, cell-based

Row | SMILES | IC50 [1] [nM] | CC50 (MT4) [µM]
1 | C=C(C)[C@]12C[C@@H](C)[C@]34OC5(CCCCCCC[C@H](C)[C@@H]6[C@@H]3[C@]3(O[C@]6(C)OC3=O)[C@H](O)[C@@]3(CO)O[C@H]3[C@H]4[C@H]1O5)O2 | 187 | > 38.5
2 | C=C(C)[C@]12C[C@@H](C)[C@]34OC5(CCCCCCC[C@@H](C)[C@@H]6[C@@H]3[C@]3(O[C@]6(C)OC3=O)[C@H](O)[C@@]3(CO)O[C@H]3[C@H]4[C@H]1O5)O2 | 229 | –
3 | C=C(C)[C@]12C[C@@H](COC(=O)c3ccccc3)[C@]34OC5(CCCCCCC[C@H](C)[C@@H]6[C@@H]3[C@]3(O[C@]6(C)OC3=O)[C@H](O)[C@@]3(CO)O[C@H]3[C@H]4[C@H]1O5)O2 | 930 | 18.8
4 | C=C(C)[C@]12C[C@@H](COC(=O)c3ccccc3)[C@@]34OC5(O[C@@H]1[C@@H]3[C@@H]1O[C@]1(CO)[C@@H](O)[C@@]1(O)[C@H]4[C@H]([C@H](C)[C@@H]1OC(=O)c1ccccc1)[C@H](C)CCCCCC[C@H]5O)O2 | 0.15 | > 6.5
5 | C=C(C)[C@]12C[C@@H](COC(=O)c3ccccc3)[C@@]34OC5(CCCCCCC[C@@H](C)[C@H]6[C@H](C)C(=O)[C@@](O)([C@H](O)[C@@]7(CO)O[C@H]7[C@H]3[C@H]1O5)[C@@H]64)O2 | 71 | > 38.5
6 | C=C(C)[C@]12C[C@@H](C)[C@@]34O[C@]5(CCCCCCC[C@H](C)[C@H]6[C@H](C)C(=O)[C@@](O)([C@H](O)[C@@]7(CO)O[C@H]7[C@H]3[C@H]1O5)[C@@H]64)O2 | 81.7 | –
7 | C=C(C)[C@]12C[C@@H](C)[C@]34OC5(CCCCCCC[C@H](C)[C@@H]6[C@@H]3[C@@](O)(C(=O)[C@@]6(C)O)[C@H](O)[C@@]3(CO)O[C@H]3[C@H]4[C@H]1O5)O2 | 107 | 24.2
8 | C=C(C)[C@]12C[C@@H](C)[C@]34OC5(CCCCCCC[C@@H](C)[C@@H]6[C@@H]3[C@@](O)(C(=O)[C@@]6(C)O)[C@H](O)[C@@]3(CO)O[C@H]3[C@H]4[C@H]1O5)O2 | 91.9 | > 6.5
9 | C=C(C)[C@]12C[C@@H](C)[C@@]34OC5(CCCCCCC[C@@H](C)[C@H]6[C@H](C)C(=O)[C@@](O)([C@H](O)[C@@]7(CO)O[C@H]7[C@H]3[C@H]1O5)[C@@H]64)O2 | 38.5 | > 6.5
10 | C=C(C)[C@]12C[C@@H](C)[C@@]34OC5(CCCCCCCC[C@H]6[C@H](C)C(=O)[C@@](O)([C@H](O)[C@@]7(CO)O[C@H]7[C@H]3[C@H]1O5)[C@@H]64)O2 | 36.3 | > 6.5
11 | C=C(C)[C@]12C[C@@H](COC(=O)c3ccccc3)[C@@]34OC5(CCCCC[C@@H](O)C[C@@H](C)[C@H]6[C@H](C)C(=O)[C@@](O)([C@H](O)[C@@]7(CO)O[C@H]7[C@H]3[C@H]1O5)[C@@H]64)O2 | 69.2 | > 6.5
12 | C=C(C)[C@]12C[C@@H](COC(=O)c3ccccc3)[C@]34OC5(CCCCC[C@@H](OC(=O)c6ccccc6)C[C@@H](C)[C@@H]6[C@@H]3[C@]3(O[C@]6(C)OC3=O)[C@H](O)[C@@]3(CO)O[C@H]3[C@H]4[C@H]1O5)O2 | 423 | 5.3
13 | C=C(C)[C@]12C[C@@H](COC(=O)c3ccccc3)[C@]34OC5(CCCCCCC[C@@H](C)[C@@H]6[C@@H]3[C@]3(O[C@]6(C)OC3=O)[C@H](O)[C@@]3(CO)O[C@H]3[C@H]4[C@H]1O5)O2 | 994 | 21.7
